This note sets out measurements from patent US11046699B2, “Pyrazolo-pyrimidin-amino-cycloalkyl compounds and their therapeutic uses” (RAPT THERAPEUTICS, INC., priority 2018, dated 2021).

In this test the target is GCN2 (Homo sapiens, UniProt Q9P2K8). As to the kind of experiment: GCN2 enzymatic endpoint assay: phosphorylation of GFP-eIF2α measured by TR-FRET (Lanthascreen). As to conditions: tested as described in Example 77; compound and/or hydrochloride, dihydrochloride or trifluoroacetic acid salt; read-out: IC 50 Activity. The format is biochemical. The method, boiled down: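 Phosphorylated eIF2α read by Lanthascreen TR-FRET (acceptor 520 nm over donor 495 nm) after EDTA stop. The reaction ran 90 min at room temperature on 80 nM GFP-eIF2α with 2 μM ATP.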
Chain of GCN2 (Q9P2K8 whole entry): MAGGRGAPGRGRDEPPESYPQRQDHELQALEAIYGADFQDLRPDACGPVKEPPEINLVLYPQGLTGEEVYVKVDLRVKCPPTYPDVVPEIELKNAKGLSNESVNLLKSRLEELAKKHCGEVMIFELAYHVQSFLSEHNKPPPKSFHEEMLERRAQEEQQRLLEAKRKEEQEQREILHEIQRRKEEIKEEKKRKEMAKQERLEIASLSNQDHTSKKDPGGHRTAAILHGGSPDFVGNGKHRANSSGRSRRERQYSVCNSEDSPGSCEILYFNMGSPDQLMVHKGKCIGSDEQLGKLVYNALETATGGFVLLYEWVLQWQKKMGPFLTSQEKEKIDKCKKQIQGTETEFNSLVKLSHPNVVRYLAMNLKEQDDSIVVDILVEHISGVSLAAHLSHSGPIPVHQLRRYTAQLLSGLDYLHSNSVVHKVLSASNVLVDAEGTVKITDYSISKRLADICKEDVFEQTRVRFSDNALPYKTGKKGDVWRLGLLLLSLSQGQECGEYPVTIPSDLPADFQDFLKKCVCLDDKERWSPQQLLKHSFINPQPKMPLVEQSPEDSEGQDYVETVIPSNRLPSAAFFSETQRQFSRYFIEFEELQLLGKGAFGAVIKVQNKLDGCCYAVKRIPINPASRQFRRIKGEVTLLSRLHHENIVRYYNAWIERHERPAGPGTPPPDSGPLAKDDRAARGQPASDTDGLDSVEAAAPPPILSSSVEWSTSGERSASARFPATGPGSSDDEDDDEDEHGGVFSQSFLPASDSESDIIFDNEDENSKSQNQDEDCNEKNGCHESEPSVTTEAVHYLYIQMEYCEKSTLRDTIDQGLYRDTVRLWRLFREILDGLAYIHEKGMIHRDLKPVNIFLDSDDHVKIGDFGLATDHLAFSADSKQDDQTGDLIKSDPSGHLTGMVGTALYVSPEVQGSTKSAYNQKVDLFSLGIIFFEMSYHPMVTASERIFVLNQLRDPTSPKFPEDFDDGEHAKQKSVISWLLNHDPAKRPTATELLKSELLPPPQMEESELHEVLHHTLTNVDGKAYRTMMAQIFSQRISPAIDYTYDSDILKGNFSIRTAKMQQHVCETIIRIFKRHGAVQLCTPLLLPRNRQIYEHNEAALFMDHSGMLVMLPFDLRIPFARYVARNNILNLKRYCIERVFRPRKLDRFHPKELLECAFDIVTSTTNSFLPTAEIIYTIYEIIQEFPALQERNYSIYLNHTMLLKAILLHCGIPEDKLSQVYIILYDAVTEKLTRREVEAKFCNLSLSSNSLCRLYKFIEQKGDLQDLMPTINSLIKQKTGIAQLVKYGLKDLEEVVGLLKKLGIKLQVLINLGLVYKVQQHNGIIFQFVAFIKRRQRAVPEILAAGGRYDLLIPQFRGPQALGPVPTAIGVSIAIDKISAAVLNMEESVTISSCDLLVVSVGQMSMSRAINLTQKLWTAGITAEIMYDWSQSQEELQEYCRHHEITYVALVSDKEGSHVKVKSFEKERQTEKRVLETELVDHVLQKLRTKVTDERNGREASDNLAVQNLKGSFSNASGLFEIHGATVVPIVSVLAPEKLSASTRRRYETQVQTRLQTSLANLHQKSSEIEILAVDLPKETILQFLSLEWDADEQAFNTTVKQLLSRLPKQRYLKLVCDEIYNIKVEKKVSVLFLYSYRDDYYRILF
In general terms: TR-FRET usually uses a lanthanide donor and a delayed reading to cut background.

Consider `CNC(=O)[C@H]1CC[C@@H](Nc2ncc3c(Br)nn(-c4ccc5nc(OC)ccc5c4)c3n2)C1` [(1S,3R)-3-[[3-bromo-1-(2-methoxy-6-quinolyl)pyrazolo[3,4-d]pyrimidin-6-yl]amino]-N-methyl-cyclopentanecarboxamide], for which the IC50 is 0.025 to 0.2 µM.

`CNC(=O)[C@H]1CC[C@@H](Nc2ncc3c(Br)nn(-c4cnc5c(C#N)cccc5c4)c3n2)C1` [(1S,3R)-3-[[3-bromo-1-(8-cyano-3-quinolyl)pyrazolo[3,4-d]pyrimidin-6-yl]amino]-N-methyl-cyclopentanecarboxamide]: the IC50 fell in the range of 0.025 to 0.2 µM.

On to `CNC(=O)[C@]1(CCCOC)CC[C@@H](Nc2ncc3c(Br)nn(-c4cc(F)c5ncccc5c4)c3n2)C1` [(1S,3R)-3-[[3-bromo-1-(8-fluoro-6-quinolyl)pyrazolo[3,4-d]pyrimidin-6-yl]amino]-1-(3-methoxypropyl)-N-methyl-cyclopentane-carboxamide], for which the IC50 was under 0.025 µM.

As to `CNC(=O)[C@]1(F)CC[C@@H](Nc2ncc3c(Br)nn(-c4cc(F)c5ncccc5c4)c3n2)C1` [(1S,3R)-3-[[3-bromo-1-(8-fluoro-6-quinolyl)pyrazolo[3,4-d]pyrimidin-6-yl]amino]-1-fluoro-N-methyl-cyclopentanecarboxamide], the IC50 was in the range of 0.025 to 0.2 µM.

Consider `CNC(=O)[C@]1(O)CC[C@@H](Nc2ncc3c(Br)nn(-c4cc(F)c5ncccc5c4)c3n2)C1` [(1S,3R)-3-[[3-bromo-1-(8-fluoro-6-quinolyl)pyrazolo[3,4-d]pyrimidin-6-yl]amino]-1-hydroxy-N-methyl-cyclopentanecarboxamide], for which the IC50 lay within 0.025 to 0.2 µM.

Consider `CNC(=O)[C@]1(OC)CC[C@@H](Nc2ncc3c(Br)nn(-c4cc(F)c5ncccc5c4)c3n2)C1` [(1S,3R)-3-[[3-bromo-1-(8-fluoro-6-quinolyl)pyrazolo[3,4-d]pyrimidin-6-yl]amino]-1-methoxy-N-methyl-cyclopentanecarboxamide], for which the IC50 was in the range of 0.025 to 0.2 µM.

Consider `C[C@]1(C(=O)NCCO)CC[C@@H](Nc2ncc3c(Br)nn(-c4cc(F)c5ncccc5c4)c3n2)C1` [(1S,3R)-3-[[3-bromo-1-(8-fluoro-6-quinolyl)pyrazolo[3,4-d]pyrimidin-6-yl]amino]-N-(2-hydroxyethyl)-1-methyl-cyclopentane-carboxamide], for which the IC50 was 0.025 to 0.2 µM.

Take `CNC(=O)[C@]1(CCC(F)(F)F)CC[C@@H](Nc2ncc3c(Br)nn(-c4cc(F)c5ncccc5c4)c3n2)C1` [(1S,3R)-3-[[3-bromo-1-(8-fluoro-6-quinolyl)pyrazolo[3,4-d]pyrimidin-6-yl]amino]-N-methyl-1-(3,3,3-trifluoropropyl)cyclopentane-carboxamide]: the IC50 lay in the range of 0.025 to 0.2 µM.

Turning to `CNC(=O)[C@]1(C(F)(F)F)CC[C@@H](Nc2ncc3c(Br)nn(-c4cc(F)c5ncccc5c4)c3n2)C1` [(1S,3R)-3-[[3-bromo-1-(8-fluoro-6-quinolyl)pyrazolo[3,4-d]pyrimidin-6-yl]amino]-N-methyl-1-(trifluoromethyl)cyclopentane-carboxamide], the IC50 lay in the range of 0.025 to 0.2 µM.

Turning to `CNC(=O)[C@H]1CC[C@@H](Nc2ncc3c(Br)nn(-c4cc(F)c5ncccc5c4)c3n2)C1` [(1S,3R)-3-[[3-bromo-1-(8-fluoro-6-quinolyl)pyrazolo[3,4-d]pyrimidin-6-yl]amino]-N-methyl-cyclopentanecarboxamide], the IC50 was under 0.025 µM.

`CNC(=O)[C@@]1(C)CC[C@@H](Nc2ncc3c(Br)nn(-c4cc(N5CCNCC5)c5ncccc5c4)c3n2)C1` [(1S,3R)-3-[[3-bromo-1-(8-piperazin-1-yl-6-quinolyl)pyrazolo[3,4-d]pyrimidin-6-yl]amino]-N,1-dimethyl-cyclopentane-carboxamide]: the IC50 fell in the range of 0.025 to 0.2 µM.

Turning to `CNC(=O)[C@@]1(C)CC[C@@H](Nc2ncc3c(Br)nn(-c4ccc5ncc(CCO)cc5c4)c3n2)C1` [(1S,3R)-3-[[3-bromo-1-[3-(2-hydroxy-ethyl)-6-quinolyl]pyrazolo[3,4-d]pyrimidin-6-yl]amino]-N,1-dimethyl-cyclopentanecarboxamide], the IC50 was under 0.025 µM.

Take `CNC(=O)[C@@]1(C)CC[C@@H](Nc2ncc3c(Br)nn(-c4ccc(OCCO)cc4)c3n2)C1` [(1S,3R)-3-[[3-bromo-1-[4-(2-hydroxy-ethoxy)phenyl]pyrazolo[3,4-d]pyrimidin-6-yl]amino]-N,1-dimethyl-cyclopentane-carboxamide]: the IC50 is 0.025 to 0.2 µM.

`CNC(=O)[C@@]1(CC(F)F)CC[C@@H](Nc2ncc3c(Br)nn(-c4ccc(-c5nnc(C)o5)cc4)c3n2)C1` [(1S,3R)-3-[[3-bromo-1-[4-(5-methyl-1,3,4-oxadiazol-2-yl)phenyl]pyrazolo[3,4-d]pyrimidin-6-yl]amino]-1-(2,2-difluoroethyl)-N-methyl-cyclopentanecarboxamide]: the IC50 is 0.025 to 0.2 µM.

As for `CNC(=O)[C@@]1(CO)CC[C@@H](Nc2ncc3c(Br)nn(-c4ccc(-c5nnc(C)s5)cc4)c3n2)C1` [(1S,3R)-3-[[3-bromo-1-[4-(5-methyl-1,3,4-thiadiazol-2-yl)phenyl]pyrazolo [3,4-d]pyrimidin-6-yl]amino]-1-(hydroxymethyl)-N-methyl-cyclo-pentanecarboxamide], the IC50 lay in the range of 0.025 to 0.2 µM.

`CNC(=O)[C@@]1([C@H](C)C#N)CC[C@@H](Nc2ncc3c(Br)nn(-c4ccc(-c5nnc(C)s5)cc4)c3n2)C1` [(1S,3R)-3-[[3-bromo-1-[4-(5-methyl-1,3,4-thiadiazol-2-yl)phenyl]pyrazolo [3,4-d]pyrimidin-6-yl]amino]-1-[(1S)-1-cyanoethyl]-N-methyl-cyclopentane-carboxamide]: the IC50 fell in the range of 0.025 to 0.2 µM.

For `COCCNS(=O)(=O)[C@H]1CC[C@@H](Nc2ncc3c(Br)nn(-c4ccc(-c5nnc(C)s5)cc4)c3n2)C1` [(1S,3R)-3-[[3-bromo-1-[4-(5-methyl-1,3,4-thiadiazol-2-yl)phenyl]pyrazolo[3,4-d]pyrimidin-6-yl]amino]-N-(2-methoxyethyl)cyclopentanesulfonamide], the IC50 lay in the range of 0.025 to 0.2 µM.

Regarding `CNC(=O)[C@@]1(CC(F)F)CC[C@@H](Nc2ncc3c(Br)nn(-c4cc(CCO)c5ncccc5c4)c3n2)C1` [(1S,3R)-3-[[3-bromo-1-[8-(2-hydroxyethyl)-6-quinolyl]pyrazolo[3,4-d]pyrimidin-6-yl]amino]-1-(2,2-difluoroethyl)-N-methyl-cyclopentanecarboxamide], the IC50 was 0.025 to 0.2 µM.

Take `CNC(=O)[C@@]1(C)CC[C@@H](Nc2ncc3c(I)nn(-c4ccc(-c5nnc(C)o5)cc4)c3n2)C1` [(1S,3R)-3-[[3-iodo-1-[4-(5-methyl-1,3,4-oxadiazol-2-yl)phenyl]pyrazolo[3,4-d]pyrimidin-6-yl]amino]-N,1-dimethyl-cyclopentanecarboxamide]: the IC50 lay in the range of 0.025 to 0.2 µM.

As to `COCCNC(=O)[C@H]1CC[C@H](Nc2ncc3c(Br)nn(-c4ccc5ncccc5c4)c3n2)C1` [(1S,3S)-3-((3-bromo-1-(quinolin-6-yl)-1H-pyrazolo[3,4-d]pyrimidin-6-yl)amino)-N-(2-methoxyethyl)cyclopentane-1-carboxamide], the IC50 lay within 0.5 to 1 µM.

`CNC(=O)[C@H]1C[C@H](Nc2ncc3c(Br)nn(-c4cc(Cl)cc(CO)c4)c3n2)CO1` [(2R,4S)-4-[[3-bromo-1-[3-chloro-5-(hydroxymethyl)phenyl]pyrazolo [3,4-d]pyrimidin-6-yl]amino]-N-methyl-tetrahydrofuran-2-carboxamide]: the IC50 lay in the range of 0.025 to 0.2 µM.

As to `CNC(=O)[C@H]1C[C@H](Nc2ncc3c(Br)nn(-c4ccc(-c5nnc(C)s5)cc4)c3n2)CO1` [(2R,4S)-4-[[3-bromo-1-[4-(5-methyl-1,3,4-thiadiazol-2-yl)phenyl]pyrazolo [3,4-d]pyrimidin-6-yl]amino]-N-methyl-tetrahydrofuran-2-carboxamide], the IC50 lay in the range of 0.025 to 0.2 µM.

As to `O=C([C@@H]1CC[C@@H](Nc2ncc3c(Br)nn(-c4ccc5ncccc5c4)c3n2)C1)N1C2CCC1COC2` [(3-oxa-8-azabicyclo[3.2.1]octan-8-yl)((1R,3R)-3-((3-bromo-1-(quinolin-6-yl)-1H-pyrazolo [3,4-d]pyrimidin-6-yl)amino)cyclopentyl) methanone], the IC50 was in the range of 0.025 to 0.2 µM.

On to `CNC(=O)C1(C)CC[C@@H](Nc2ncc3c(Br)nn(-c4ccc5nc(OC)ccc5c4)c3n2)C1` (stereo partly drawn) [(3R)-3-((3-bromo-1-(2-methoxyquinolin-6-yl)-1H-pyrazolo[3,4-d]pyrimidin-6-yl)amino)-N,1-dimethylcyclopentane-1-carboxamide], for which the IC50 was 0.025 to 0.2 µM.

In the case of `CN(C)S(=O)(=O)C1CC[C@@H](Nc2ncc3c(Br)nn(-c4cc(F)c5ncccc5c4)c3n2)C1` (stereo partly drawn) [(3R)-3-((3-bromo-1-(8-fluoroquinolin-6-yl)-1H-pyrazolo[3,4-d]pyrimidin-6-yl)amino)-N,N-dimethylcyclopentane-1-sulfonamide], the IC50 fell in the range of 0.025 to 0.2 µM.

For `CNC(=O)C1(C#N)CC[C@@H](Nc2ncc3c(Br)nn(-c4cc(Cl)cc([C@H](C)N)c4)c3n2)C1` (stereo partly drawn) [(3R)-3-[[1-[3-[(1S)-1-aminoethyl]-5-chloro-phenyl]-3-bromo-pyrazolo[3,4-d]pyrimidin-6-yl]amino]-1-cyano-N-methyl-cyclo-pentanecarboxamide; 2,2,2-trifluoroacetic acid], the IC50 is 0.025 to 0.2 µM.

Regarding `CNC(=O)C1(C)CC[C@@H](Nc2ncc3c(Br)nn(-c4ccc5nc(OC)ccc5c4)c3n2)C1` (stereo partly drawn) [(3R)-3-[[3-bromo-1-(2-methoxy-6-quinolyl)pyrazolo[3,4-d]pyrimidin-6-yl]amino]-N,1-dimethyl-cyclopentanecarboxamide], the IC50 was in the range of 0.025 to 0.2 µM.

As to `CC1(C(N)=O)CC[C@@H](Nc2ncc3c(Br)nn(-c4ccc(-c5ncco5)c(F)c4)c3n2)C1` (stereo partly drawn) [(3R)-3-[[3-bromo-1-(3-fluoro-4-oxazol-2-yl-phenyl)pyrazolo[3,4-d]pyrimidin-6-yl]amino]-1-methyl-cyclopentanecarboxamide], the IC50 is under 0.025 µM.

On to `CNC(=O)C1(C)CC[C@@H](Nc2ncc3c(Br)nn(-c4ccc5cnc(OC)cc5c4)c3n2)C1` (stereo partly drawn) [(3R)-3-[[3-bromo-1-(3-methoxy-6-isoquinolyl)pyrazolo[3,4-d]pyrimidin-6-yl]amino]-N,1-dimethyl-cyclopentane-carboxamide], for which the IC50 was 0.025 to 0.2 µM.
